Literature values as cited in patent US6811967B2 (The University of Manitoba, priority 2001, dated 2004).

How the values were obtained:
human SSAT = target: T1, human SSAT (Homo sapiens, UniProt P21673); conditions: human SSAT expressed in E. coli (Parry et al. 1995)
T1 construct: host or cells: E. coli

[1] = weak base, primary amine
[2] = Sprague-Dawley rats, same therapeutic dose (Goralski et al. 1999)

T1 sequence (P21673 whole entry): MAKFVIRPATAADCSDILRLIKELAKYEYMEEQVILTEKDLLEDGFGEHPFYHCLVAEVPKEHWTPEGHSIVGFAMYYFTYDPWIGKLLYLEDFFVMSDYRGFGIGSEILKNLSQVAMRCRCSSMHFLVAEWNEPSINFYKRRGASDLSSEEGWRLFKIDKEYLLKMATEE

Compound	acetylation by SSAT (human SSAT)	pKa [1]	urinary excretion of acetylamantadine [2]
N=C(N)NCCCCCCC(=O)NC(O)C(=O)NCCCCNCCCN (centres unmarked) [1-deoxyspergualin]	acetylated by SSAT		
CCCCNCCCN [N-(n-butyl)-1,3-diaminopropane]	acetylated by SSAT		
NCCCNCCS [WR1065, S-2-(3-aminopropylamino) ethanethiol]	acetylated by SSAT		
NC12CC3CC(CC(C3)C1)C2 [amantadine, 1-adamantanamine]		10.1	did not excrete acetylamantadine
